Experimental data reported in patent US6286513A, “Methods for treating superficial bladder carcinoma” (priority 1998, dated 2001).
Entries after “also recorded” stand apart in the source; their conditions may differ.

What was measured:
[1] = system: aneuploid tumors; assay: Recurrence in patients with aneuploid tumors; type: in vivo; conditions: high efficacy therapy
[2] = system: Ta, T1 or Tis bladder tumors; assay: Clinical trial of adjuvant intravesical MMC after transurethral resection: recurrence in Ta, T1 or Tis bladder tumor patients (Example 1, Table 2, FIG. 1); type: in vivo; conditions: for median time to recurrence: all patients (Ta, T1, Tis); for percentage of patients projected to be tumor recurrence-free at the end of 5 years: all patients, Kaplan-Meier projection
Method: One hundred and eight patients with histologically proven primary or recurrent transitional cell carcinoma of grade I to grade III and of stage Ta, T1 or Tis who had their tumors completely resected received the high efficacy therapy within 4 weeks after surgery.
The high efficacy therapy was administered once weekly for a total of six treatments. The MMC dosing solution was made by adding 40 mg of MMC to a vial containing 20 ml of sterile water.
To reduce urine production in the patients during treatment with the MMC dosing solution, the patients were instructed to refrain from fluids for 8 hours prior to and during treatment with the MMC dosing solution. To maintain the pH levels of the urine produced during treatment with the MMC dosing solution, the patients were given 1.3 grams of sodium bicarbonate the night prior to treatment, upon rising on the morning of treatment and 30 minutes prior to treatment. Then a Foley catheter was placed in the bladder of the patients and the bladder was drained by gravity. This was accomplished by holding the catheter end below the level of the bladder. The post void residual urine volume was determined using a bladder ultrasound machine. Drainage of the bladder was repeated until the residual urine volume was less than 10 ml. Drainage was aided by having the patient sit up or stand up, or reach forward while standing. Thereafter, 40 mg of MMC in 20 ml sterile water was instilled intravesically by gravity into the bladder of the patient and retained there for 2 hours. After the 2 hour therapy, bladder contents were drained from the patients and the volume and pH of the contents measured.
For purposes of comparison, 97 matching control patients from whom primary Ta, T1 or Tis bladder tumors had been completely resected were subjected to the customary experimental MMC intravesical therapy weekly for six weeks. These patients were not instructed to refrain from fluids for 8 hours prior to or during the customary experimental therapy. Prior to instillation of the 1 mg/ml MMC dosing solution, the patients were placed in the supine or dorsal lithotomy position and a Foley catheter inserted transurethrally into the bladder of the patients. The bladders were drained by gravity and the post void urine residual volume was measured. No attempts were made to further reduce the residual urine volume. Thereafter, 20 mg of MMC in 20 ml sterile water was instilled intravesically by gravity into the bladders of the patients and retained for 2 hours. After the 2 hour therapy, bladder contents were drained from the patients and the volume and pH of the contents measured.
Cytoscopy was performed on each surviving patient quarterly at three months for 2 years and then at 3 months or six months for the remaining 3 years to look for evidence of visible tumors. Urine cytology was performed on each surviving patient quarterly at three months for 2 years and then at 3 months or six months for the remaining 3 years to look for cells with aneuploid DNA contents. […] If necessary, i.e., if tumor recurrence was suspected, the follow-up included biopsy of the suspicious area and transurethral resection of the bladder tumor. Patients with proven recurrence were treated according to standards in the clinical community.
At each time period the number of patients who had developed histologically proven recurrent or progressive disease on biopsy or cytology was determined. The percentage of patients who remained tumor free at each time period after receiving the high efficacy therapy or the customary experimental therapy is shown in FIG. 1.
The Kaplan-Meier Curve is a conventional tool used to project treatment outcome such as the % of patients who remain alive or free of disease at a certain time interval. (Martin Bland, Introduction to Medical Statistics (1994) Oxford Press). The Kaplan Meier Curve was used to compare the customary experimental therapy to the high efficacy therapy. […]

[3] = Blood levels of MMC during high efficacy therapy; type: in vivo, patients
[4] = system: Ta tumors; assay: Recurrence in patients with Ta tumors (Kaplan-Meier); type: in vivo
Source text: The Kaplan-Meier Curve is a conventional tool used to project treatment outcome such as the % of patients who remain alive or free of disease at a certain time interval. (Martin Bland, Introduction to Medical Statistics (1994) Oxford Press). The Kaplan Meier Curve was used to compare the customary experimental therapy to the high efficacy therapy. When compared to the customary experimental therapy, the high efficacy therapy increased the percentage of all patients who are projected to remain recurrence-freefor longer than 5 years from 20 to 41%. The improvement was similar for patients with T1 tumors which were growing in the deeper bladder tissue layers (i.e. increase from 16% to 44%) and for patients with Ta tumors which were growing in the urothelial surface of the bladder (i.e. increase from 20% to 37%).

[5] = previous studies, cited from earlier work
[6] = Overall bladder wall exposure to MMC: urinary AUC, C^n×T, urine production and pH (Table 3); type: in vivo, patients; conditions: for Urinary AUC / Urinary C^n × T: mean ± standard deviation; for Urinary C^n × T: n = 1.24
Source text: A commonly used measure of drug exposure for anticancer agent is the product of exposure concentration and duration, or AUC (area under the curve). […] The drug exposure in the urinary bladder can be determined from the drug concentration in the urine and can serve as a measure of exposure to the tumor tissue.

[7] = system: large tumors, i.e. tumors >5 cm; assay: Recurrence in patients with large tumors; type: in vivo; conditions: high efficacy therapy; large tumors >5 cm
[8] = system: low grade tumors (grade I and grade II); assay: Recurrence in patients with low grade tumors (Example 5); type: in vivo
Method: Eighty-one patients from whom low grade tumors (i.e., grade I and grade II) had been removed were treated weekly for six weeks with the high efficacy therapy as described above in example 1 and 64 patients from whom low grade tumors were had been removed were treated weekly for six weeks with the customary experimental therapy as described in example 1. All patients were evaluated as described in example 1. The median time to recurrence was 637 days for patients treated by the high efficacy treatment versus 339 days for patients treated by the customary experimental treatment. The projected 5-year recurrence free value is 35% for the high efficacy treatment and 21% for the customary experimental treatment.

[9] = system: multifocal Ta, T1, Tis tumors; assay: Recurrence in patients with multifocal tumors (Example 3, FIG. 9); type: in vivo
Method: Sixty-five of patients from whom 3 or more Ta, T1,or Tis tumors had been removed were treated weekly for six weeks with the high efficacy therapy as described above in example 1 and 52 patients from whom 3 or more Ta, T1, or Tis tumors had been removed were treated weekly for six weeks with standard MMC intravsical therapy as described in example 1. All patients received the follow-up described in example 1.

[10] = customary experimental MMC intravesical therapy
[11] = high efficacy vs customary experimental therapy
[12] = customary experimental treatment

Compound: COC12C(COC(N)=O)C3=C(C(=O)C(C)=C(N)C3=O)N1CC1NC12 (stereo not shown) [MMC]
- delaying and preventing tumor recurrence, vs customary therapy [1]: more effective
- median time to recurrence [2, 10]: 292 days
- percentage of patients projected to be tumor recurrence-free at the end of 5 years [2, 10]: 20%
- percentage of patients projected to remain tumor recurrence free for 5 years, vs customary therapy ([2]; high efficacy therapy, Ta, T1, Tis): more effective in enhancing the percentage or fraction of Ta, T1, Tis bladder tumor patients that are projected to remain tumor recurrence free for a period of 5 years
- rate of recurrence and time interval before tumor recurrence, vs customary therapy ([2]; high efficacy therapy, Ta, T1 or Tis): more effective at reducing the rate of recurrence and increasing the time interval before tumor recurrence is observed; also recorded: tumors recurred at a later time in patients receiving the high efficacy treatment
- median time to recurrence ([2]; high efficacy therapy): 754 days
- percentage of patients projected to be tumor recurrence-free at the end of 5 years ([2]; high efficacy therapy): 41%
- blood levels of MMC, in most instances [3]: less than 5 ng/ml
- levels of MMC in the blood of the patients, upper bound [3]: ≤ 50 ng/mL
- percentage of patients projected to remain recurrence-free for longer than 5 years ([4]; customary experimental therapy): 20%
- percentage of patients projected to remain recurrence-free for longer than 5 years ([4]; high efficacy therapy): 37%
- systemic dose without significant host toxicity ([5]; MMC given systemically): ≤ 50 mg
- blood level of MMC without significant host toxicity [5]: below 400 ng/ml
- Urinary AUC ([6]; customary experimental therapy): 24.2 ± 14.7 mg·min/mL
- Urinary C^n × T ([6]; customary experimental therapy): 97.2 ± 77.08 mg^n.min/ml
- Urinary AUC ([6]; high efficacy therapy): 57.6 ± 37.2 mg·min/mL
- Urinary C^n × T ([6]; high efficacy therapy): 291 ± 283 mg^n.min/ml
- average drug exposure measured as AUC, high efficacy relative to customary [6, 11]: 2 times
- average drug exposure measured as C^n×T, high efficacy relative to customary [6, 11]: 2.4 times
- delaying and preventing tumor recurrence, vs customary therapy [7]: more effective
- median time to recurrence [8, 12]: 339 days
- projected 5-year recurrence free value [8, 12]: 21%
- median time to recurrence ([8]; high efficacy treatment): 637 days
- projected 5-year recurrence free value ([8]; high efficacy treatment): 35%
- projected 5-year recurrence free rate ([9]; customary experimental therapy, multifocal tumors): 17%
- projected 5-year recurrence free rate ([9]; high efficacy therapy, multifocal tumors): 32%
- delaying and preventing tumor recurrence, vs customary therapy ([9]; high efficacy therapy, multiple tumors): more effective
- median time to tumor recurrence ([9]; standard treatment (so in the source), multifocal tumors): 488 days
